Columns and labels:
Human FAAH = biological target: T1, Human FAAH (Homo sapiens, UniProt O00519); experiment: Assay Method 1: FAAH assay, hydrolysis of 3H-anandamide by cell homogenate; type: biochemical; conditions: T84 or transfected SK-N-MC cell homogenate, 3H-AEA 80 nM, rt 1 h, average of results obtained
T1 construct: expressed in transfected cells; alternatively T84 frozen cell pellets
T1 sequence (O00519 1-579): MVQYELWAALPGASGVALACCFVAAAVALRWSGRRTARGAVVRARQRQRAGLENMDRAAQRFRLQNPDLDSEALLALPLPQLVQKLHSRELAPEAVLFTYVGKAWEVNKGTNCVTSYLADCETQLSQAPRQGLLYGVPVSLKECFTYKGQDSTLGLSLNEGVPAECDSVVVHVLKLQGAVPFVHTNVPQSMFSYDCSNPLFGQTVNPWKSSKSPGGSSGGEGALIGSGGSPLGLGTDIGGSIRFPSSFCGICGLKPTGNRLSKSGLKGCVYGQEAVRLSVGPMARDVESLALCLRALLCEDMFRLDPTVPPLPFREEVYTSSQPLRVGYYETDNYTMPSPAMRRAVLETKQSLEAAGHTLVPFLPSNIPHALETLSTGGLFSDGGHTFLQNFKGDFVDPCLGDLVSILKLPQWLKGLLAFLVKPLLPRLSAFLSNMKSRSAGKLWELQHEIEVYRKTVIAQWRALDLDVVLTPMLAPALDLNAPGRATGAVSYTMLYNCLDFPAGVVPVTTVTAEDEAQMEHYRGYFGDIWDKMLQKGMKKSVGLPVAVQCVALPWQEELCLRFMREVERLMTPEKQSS
Experimental: A. Transfection of Cells with Human FAAH
(§1) A 10-cm tissue culture dish with a confluent monolayer of SK-N-MC cells was split 2 days (d) prior to transfection. Using sterile technique, the media was removed and the cells were detached from the dish by the addition of trypsin. One fifth of the cells were then placed onto a new 10-cm dish. Cells were grown in a 37° C. incubator with 5% CO2 in Minimal Essential Media Eagle with 10% Fetal Bovine Serum. After 2 d, cells were approximately 80% confluent. These cells were removed from the dish with trypsin and pelleted in a clinical centrifuge. The pellet was re-suspended in 400 μL complete media and transferred to an electroporation cuvette with a 0.4 cm gap between the electrodes. Supercoiled human FAAH cDNA (1 μg) was added to the cells and mixed. The voltage for the electroporation was set at 0.25 kV, and the capacitance was set at 960 μF. After electroporation, the cells were diluted into complete media (10 mL) and plated onto four 10-cm dishes. Because of the variability in the efficiency of electroporation, four different concentrations of cells were plated. The ratios used were 1:20, 1:10, and 1:5, with the remainder of the cells being added to the fourth dish. The cells were allowed to recover for 24 h before adding the selection media (complete media with 600 μg/mL G418). After 10 d, dishes were analyzed for surviving colonies of cells. Dishes with well-isolated colonies were used. Cells from individual colonies were isolated and tested.
(§2) T84 frozen cell pellets or transfected SK-N-MC cells (contents of 1×15 cm culture dishes) were homogenized in 50 mL of FAAH assay buffer (125 mM Tris, 1 mM EDTA, 0.2% Glycerol, 0.02% Triton X-100, 0.4 mM Hepes, pH 9). The assay mixture consisted of 50 μL of the cell homogenate, 10 μL of the test compound, and 40 μL of anandamide [1-^3H-ethanolamine] (^3H-AEA, Perkin-Elmer, 10.3 Ci/mmol), which was added last, for a final tracer concentration of 80 nM. The reaction mixture was incubated at rt for 1 h. During the incubation, 96-well Multiscreen filter plates (catalog number MAFCNOB50; Millipore, Bedford, Mass., USA) were loaded with 25 μL of activated charcoal (Multiscreen column loader, catalog number MACL09625, Millipore) and washed once with 100 μL of MeOH. Also during the incubation, 96-well DYNEX MicroLite plates (catalog number NL510410) were loaded with 100 μL of MicroScint40 (catalog number 6013641, Packard Bioscience, Meriden, Conn., USA). After the 1 h incubation, 60 μL of the reaction mixture were transferred to the charcoal plates, which were then assembled on top of the DYNEX plates using
Centrifuge Alignment Frames (catalog number MACF09604, Millipore). The unbound labeled ethanolamine was centrifuged through to the bottom plate (5 min at 2000 rpm), which was preloaded with the scintillant, as described above. The plates were sealed and left at rt for 1 h before counting on a Hewlett Packard TopCount.
(§3) Results for compounds tested in these assays are summarized in Table 1, as an average of results obtained. Compounds were tested in free base, hydrochloride salt, and/or trifluoroacetic acid salt forms. Where activity is shown as greater than (>) a particular value, the value is the solubility limit of the compound in the assay medium or the highest concentration tested in the assay.

Rat FAAH = biological target: T2, Rat FAAH (Rattus norvegicus, UniProt P97612); experiment: Assay Method 2: FAAH assay, hydrolysis of 3H-anandamide by cell homogenate; type: biochemical; conditions: T84 or transfected SK-N-MC cell homogenate, 3H-AEA 80 nM, rt 1 h, average of results obtained
T2 construct: expressed in transfected cells
T2 sequence (P97612 1-579): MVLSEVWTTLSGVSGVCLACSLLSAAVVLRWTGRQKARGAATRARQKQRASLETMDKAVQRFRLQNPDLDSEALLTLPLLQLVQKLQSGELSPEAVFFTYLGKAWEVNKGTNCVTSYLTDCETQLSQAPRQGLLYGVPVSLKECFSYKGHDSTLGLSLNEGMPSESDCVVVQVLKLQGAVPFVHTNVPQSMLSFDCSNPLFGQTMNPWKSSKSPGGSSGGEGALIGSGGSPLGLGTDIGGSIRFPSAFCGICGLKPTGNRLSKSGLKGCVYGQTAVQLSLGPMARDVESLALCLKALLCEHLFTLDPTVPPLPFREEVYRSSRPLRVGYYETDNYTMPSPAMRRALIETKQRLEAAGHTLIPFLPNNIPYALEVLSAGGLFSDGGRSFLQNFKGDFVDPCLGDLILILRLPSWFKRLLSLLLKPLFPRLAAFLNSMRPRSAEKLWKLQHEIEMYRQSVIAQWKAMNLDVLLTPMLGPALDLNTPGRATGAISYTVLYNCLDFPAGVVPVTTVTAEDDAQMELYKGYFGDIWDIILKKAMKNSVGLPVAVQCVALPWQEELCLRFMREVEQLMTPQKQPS
Experimental: A. Transfection of Cells with Rat FAAH
as §1, with “rat” for “human”, “[…]” for “960 μF.”
as §2, with “25” for “25 μL”, “using Centrifuge Alignment Frames (catalog number MACF09604, Millipore). The unbound labeled ethanolamine was centrifuged through to the bottom plate (5 min at 2000 rpm), which was preloaded with the scintillant, as described above. The plates were sealed and left at rt for 1 h before counting on a Hewlett Packard TopCount.” for “using”
as §3

Structure (SMILES)	IC50 (Human FAAH)	IC50 (Rat FAAH)
O=C(Nc1ccncn1)N1CCCC(Cc2ccc(C(F)(F)F)cc2)C1 (stereo not drawn) [Example 2, N-Pyrimidin-4-yl-3-{[4-(trifluoromethyl)phenyl]methyl}piperidine-1-carboxamide]	8000 nM	> 10000 nM
O=C(Nc1ccon1)N1CCCC(Cc2cccc(C(F)(F)F)c2)C1 (stereo not drawn) [Example 9, N-Isoxazol-3-yl-3-{[3-(trifluoromethyl)phenyl]methyl}piperidine-1-carboxamide]	7000 nM	9000 nM
O=C(Nc1ccon1)N1CCCC(Cc2ccc(C(F)(F)F)cc2)C1 (stereo not drawn) [Example 8, N-Isoxazol-3-yl-3-{[4-(trifluoromethyl)phenyl]methyl}piperidine-1-carboxamide]	10000 nM	> 10000 nM
O=C(Nc1ccncn1)N1CCCC(Cc2cccc(C(F)(F)F)c2)C1 (stereo not drawn) [Example 3, N-Pyrimidin-4-yl-3-{[3-(trifluoromethyl)phenyl]methyl}piperidine-1-carboxamide]	8000 nM	10000 nM
O=C(Nc1cccnc1)N1CCCC(Cc2cnc3ccccc3c2)C1 (stereo not drawn) [Example 16, 3-Quinolin-3-ylmethyl-piperidine-1-carboxylic acid pyridin-3-ylamide]	1000 nM	> 10000 nM
O=C(Nc1noc2ccccc12)N1CCCC(Cc2cccc(C(F)(F)F)c2)C1 (stereo not drawn) [Example 6, N-1,2-Benzisoxazol-3-yl-3-{[3-(trifluoromethyl)-phenyl]-methyl}-piperidine-1-carboxamide]	645 nM	50 nM

Stronger by IC50 (Human FAAH), values ahead:

IC50 (Human FAAH)	IC50 (Rat FAAH)	Structure (SMILES)
430 nM	1600 nM	O=C(Nc1cccnc1)N1CCCC(Cc2ccc(OC(F)(F)F)cc2)C1 (stereo not drawn) [Example 19, 3-(4-Trifluoromethoxy-benzyl)-piperidine-1-carboxylic acid pyridin-3-ylamide]
410 nM	604 nM	O=C(Nc1cccnc1)N1CCCC(Cc2ccc3c(c2)OC(F)(F)O3)C1 (stereo not drawn) [Example 1, 3-(2,2-Difluoro-benzo[1,3]dioxol-5-ylmethyl)-piperidine-1-carboxylic acid pyridin-3-ylamide]
190 nM	450 nM	O=C(Nc1cccnc1)N1CCCC(Cc2cccc(OC(F)(F)F)c2)C1 (stereo not drawn) [Example 18, 3-(3-Trifluoromethoxy-benzyl)-piperidine-1-carboxylic acid pyridin-3-ylamide]
73 nM	27 nM	O=C(Nc1cccnc1)N1CCCC(Cc2cccc(Oc3ccc(Cl)cc3)c2)C1 (single isomer, unassigned; (-)) [Example 14, (−)-3-[3-(4-Chloro-phenoxy)-benzyl]-piperidine-1-carboxylic acid pyridin-3-ylamide]
56 nM	7 nM	O=C(Nc1cnc2cccnn12)N1CCCC(Cc2cccc(Oc3ccc(F)cc3)c2)C1 (stereo not drawn) [Example 12, 3-[3-(4-Fluoro-phenoxy)-benzyl]-piperidine-1-carboxylic acid imidazo[1,2-b]pyridazin-3-ylamide]
48 nM	180 nM	O=C(Nc1cccnc1)N1CCCC(Cc2ccc(Cl)c(Cl)c2)C1 (stereo not drawn) [Example 17, 3-(3,4-Dichloro-benzyl)-piperidine-1-carboxylic acid pyridin-3-ylamide]
19 nM	31 nM	O=C(Nc1cccnc1)N1CCCC(Cc2cccc(Oc3ccc(Cl)cc3)c2)C1 (single isomer, unassigned; (+)) [Example 13, (+)-3-[3-(4-Chloro-phenoxy)-benzyl]-piperidine-1-carboxylic acid pyridin-3-ylamide]
18 nM	19 nM	O=C(Nc1cccnc1)N1CCCC(Cc2cccc(Oc3ccc(F)cc3)c2)C1 (stereo not drawn) [Example 10, 3-[3-(4-Fluorophenoxy)benzyl]-N-pyridin-3-ylpiperidine-1-carboxamide]
11 nM	17 nM	O=C(Nc1cccnc1)N1CCCC(Cc2cccc(Oc3ccc(OC(F)(F)F)cc3)c2)C1 (stereo not drawn) [Example 15, 3-[3-(4-Trifluoromethoxy-phenoxy)-benzyl]-piperidine-1-carboxylic acid pyridine-3-ylamide]

Reference: patent US8598356B2, “Heteroaryl-substituted urea modulators of fatty acid amide hydrolase” (Janssen Pharmaceutica NV, priority 2008, dated 2013)
